Structures are written as SMILES. “And” between values parts separate entries of the source, which are not always exact repeats. Equal values may be shown once.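 Method: 48-hour compound exposure of cells in 96-well plates, five concentrations, linear interpolation of endpoints. GI50 marks 50% less growth. The concentration for full growth arrest is given as TGI.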 The source made the active and inactive calls. No stated cut-off is given here; in the data, active means GI50 below about 0.43 µM; inactive means the rest.

Some test systems named below: DMS 273 small cell lung; LXFL 529 NSCLC; SNB-78 CNS; XF 498 CNS; RXF-631 renal; KM20L2 colon; DLD-1 colon; MDA-N; HOP-18 NSCLC.
Test in all cases: NCI tumour cell line growth inhibition, 48 h

Regarding `N#Cc1sc2nc3c(c(-c4ccccc4)c2c1N)CCCC3`, the TGI in the assay on DMS 273 small cell lung was more than 100 µM; with LXFL 529 NSCLC, more than 100 µM; with SNB-78 CNS it was more than 100 µM; with XF 498 CNS, 92.2 µM.

Regarding `CN(C(=O)C12C3C4C1C1C2C3C41C#N)C(C)(C)C` (stereo not drawn), the TGI with DMS 273 small cell lung, in the assay with LXFL 529 NSCLC, with RXF-631 renal, with SNB-78 CNS, in the assay on KM20L2 colon and in the assay on DLD-1 colon was more than 100 µM throughout.

With `COc1ccc2c(Cl)cc(NC(=S)Nc3ccccc3)nc2c1`, the TGI in the assay with MDA-N came to 32.4 µM.

On to `C(=C\c1ccc2ccccc2c1Nc1ccccc1)/c1ccccc1`, for which the TGI with DMS 273 small cell lung is more than 100 µM; in the assay with LXFL 529 NSCLC, more than 100 µM; in the assay with HOP-18 NSCLC it was more than 88.1 µM; in the assay with SNB-78 CNS, more than 91.8 µM; with KM20L2 colon, more than 100 µM; in the assay with XF 498 CNS, 40.6 µM. Besides, the TGI in the assay with DLD-1 colon was more than 100 µM.

`CN(C)NC(=O)NC12CC3CC(CC(C3)C1)C2`: the TGI in the assay with DMS 273 small cell lung, in the assay on LXFL 529 NSCLC, with SNB-78 CNS, in the assay on KM20L2 colon and in the assay with XF 498 CNS was more than 100 µM in each case.

Compound `COc1ccc2c(c1O)[C@@]13CCCC=C1[C@@H](C2)N(C)CC3` gave a TGI in the assay on MDA-N of more than 100 µM.

As to `CCc1ccc([OH2+])c(C(=O)[O-])c1.CCc1ccc([OH2+])c(C(=O)[O-])c1.CCc1ccc([OH2+])c(C(=O)[O-])c1.CCc1ccc([OH2+])c(C(=O)[O-])c1.[Cu+2].[Cu+2]`, in the assay on MDA-N, the GI50 is more than 71100 nM and the TGI was more than 100 µM.

As to `Nc1ncc(CN2CCCC2)c(-c2ccccc2O)n1`, the TGI in the assay with DMS 273 small cell lung, in the assay with LXFL 529 NSCLC, in the assay with HOP-18 NSCLC, with KM20L2 colon, with XF 498 CNS and with DLD-1 colon was more than 750 µM in each case.

On to `O=C1c2c(c3c4ccccc4n(CC4CO4)c3c3[nH]c4ccccc4c23)C(=O)N1Cc1ccccc1` (stereo not drawn), for which the TGI in the assay on DMS 273 small cell lung, in the assay with LXFL 529 NSCLC, in the assay with RXF-631 renal, with SNB-78 CNS and in the assay on XF 498 CNS was more than 100 µM in each case.

Take `O=C1N(c2ccc(Cl)cc2)C(=O)C2(SC=NN2Cc2ccccc2)N1c1ccc(Cl)cc1` (stereo not drawn): the TGI is more than 100 µM in the assay with LXFL 529 NSCLC; more than 100 µM in the assay with HOP-18 NSCLC; more than 100 µM with RXF-631 renal; more than 100 µM in the assay on SNB-78 CNS; more than 100 µM in the assay on KM20L2 colon; 94.4 µM in the assay with XF 498 CNS. Also, in the assay on DLD-1 colon, the TGI was more than 100 µM.

For `COc1cc2c(cc1O)CCN[C@@]21CS[C@H]2c3c(OC(C)=O)c(C)c4c(c3C(COC1=O)N1C2C2NC(Cc3cc(C)c(OC)c(O)c32)[C@@H]1O)OCO4` (stereo partly drawn), the GI50 is 4.5 ng/mL in the assay on DMS 273 small cell lung; 0.00037 ng/mL and 4.5 ng/mL in the assay on SNB-78 CNS; 0.000365 ng/mL and 4.5 ng/mL in the assay on DLD-1 colon. Also, the result in the assay on LXFL 529 NSCLC, with HOP-18 NSCLC and in the assay on RXF-631 renal was inactive. Also, the TGI in the assay with SNB-78 CNS turned out to be 0.932 µg/mL.

`O=C(Nc1c[nH]c(=O)[nH]c1=O)Oc1ccccc1` registered a TGI in the assay on MDA-N of more than 100 µM.

Regarding `COc1cccc(NC(=O)/C(CS(=O)(=O)CCC(C(C)=O)C(C)=O)=N\NC(C)(C)C)c1`, the TGI with DMS 273 small cell lung, in the assay with LXFL 529 NSCLC, with HOP-18 NSCLC, in the assay on SNB-78 CNS, in the assay with KM20L2 colon and in the assay on DLD-1 colon was more than 100 µM throughout.

As for `CCn1c(=O)nc2n(-c3ccc(SC)cc3)c3ccccc3nc-2c1=O`, the TGI with DMS 273 small cell lung, with LXFL 529 NSCLC, in the assay on HOP-18 NSCLC, with RXF-631 renal, with SNB-78 CNS and in the assay on KM20L2 colon was more than 100 µM throughout. This compound also displayed a TGI with DLD-1 colon of more than 100 µM.

As to `COc1oc(C2C/C(=C/C(C)=C/C(C)=C/C(C)=C/c3ccc([N+](=O)[O-])cc3)CO2)c(C)c(=O)c1C` (stereo not drawn), the TGI in the assay with MDA-N was 23.9 µM.

In the case of `C=C1C(C)C2C(Cc3ccccc3)NC(=O)C23C(OC(C)=O)C=CC(C)(O)C(=O)C(C)C/C=C/C3C1O` (stereo not drawn), the GI50 with MDA-N was 1750 nM; with DMS 273 small cell lung, 0.05 µM; with HOP-18 NSCLC, 40.4 nM and 50 nM; in the assay on KM20L2 colon, 0.275 µM. Also, the TGI with MDA-N is 21.4 µM and > 162 µM; in the assay on DMS 273 small cell lung it was 73.9 µM and > 500 µM; in the assay with LXFL 529 NSCLC it was 96.4 µM; with HOP-18 NSCLC, 1.09 µM and 0.117 µM; in the assay with SNB-78 CNS, 1.55 µM; with KM20L2 colon it was 99.2 µM and > 500 µM. Also, the TGI in the assay on XF 498 CNS was 28.5 µM.

Turning to `COc1cc([C@@H]2c3cc4c(cc3[C@@H](OC3OC5COC(C)OC5C(O)C3O)[C@H]3COC(=O)[C@H]23)OCO4)cc(OC)c1O` (stereo partly drawn), the GI50 in the assay on MDA-N is 18600 nM; in the assay with DMS 273 small cell lung it was 58.8 µM. Also, the TGI with MDA-N is 4.36 µM; in the assay on DMS 273 small cell lung it was 32.9 µM; in the assay with LXFL 529 NSCLC, 218 µM; in the assay on HOP-18 NSCLC it was 121 µM and 232 µM; in the assay on SNB-78 CNS, 154 µM and 604 µM; in the assay on KM20L2 colon, 133 µM and 225 µM. Moreover, the TGI in the assay with XF 498 CNS was 73.6 µM and 71.1 µM.

For `CC(=O)[CH-]C(=O)c1ccccc1.CC(=O)[CH-]C(=O)c1ccccc1.Cl.[O-]CCc1ccccn1.[O-]CCc1ccccn1.[Ti+4]`, the GI50 with LXFL 529 NSCLC was 15.6 µM; in the assay on HOP-18 NSCLC it was 36200 nM; in the assay on KM20L2 colon it was 36.2 µM; in the assay with DLD-1 colon, 30.4 µM. The TGI was 38 µM in the assay with LXFL 529 NSCLC, 94.8 µM in the assay with HOP-18 NSCLC, more than 100 µM with KM20L2 colon and more than 100 µM in the assay on DLD-1 colon.

In turn, `COc1cc2c3c(c4ccc(O)cc4c2cc1OC)[C@@H](O)[C@@H]1CCCN1C3` came in with a TGI in the assay on MDA-N of 0.145 µM.

In the case of `CCOC(=O)C(=O)CC(=O)C(Br)C(Br)c1ccc(Cl)cc1` (stereo not drawn), the TGI was more than 100 µM in the assay on DMS 273 small cell lung; 31.9 µM with LXFL 529 NSCLC; more than 100 µM with RXF-631 renal; more than 100 µM with SNB-78 CNS; more than 100 µM with KM20L2 colon; 43.1 µM in the assay on DLD-1 colon.

On to `COc1cc2c3c(c4cc(OC)c(OC)cc4c2cc1OC)CN1CCC[C@H]1C3`, for which, in the assay with MDA-N, the GI50 was 81.7 nM and < 12.9 nM; the TGI is 6.57 µM and 0.776 µM.

Source of the values: PubChem BioAssay (NCI).
